Results: EP1698638A1, “Lipopeptides having pharmaceutical activity” (Technische Universität Berlin, priority 2005, dated 2006)

How the values were obtained:
Candida albicans SC 5314 = assay: microdilution assay (NCCLS), inhibitory concentration (IC); assay type: cell-based
Protocol: (§1) More specifically, a determination of inhibitory concentration (IC) of hassallidin A and hassallidin B for various fungi, Candida species and Candida strains were performed with different media (RPMI-1640 or SAB or AM3) in a microdilution assay by following the guidelines in NCCLS documents M^38-P^25 and M27-A2^26 carried out as follows Each substance was dissolved with 100% dimethyl sulfoxide (Serva, Heidelberg, Germany) to give a stock solution of 3.2 mg/ml followed by nine log2 dilution steps with the solvent. This served as a 100-fold concentrated dilution series ranging from 1.6 mg/ml to 0.003 mg/ml of the test substance. The final concentration of the test substance was 16 µg/ml to 0.031 µg/ml.
(§2) Therefore the 100-fold concentrated dilution series (with 100% DMSO) was diluted to the final concentration by two dilution steps: • (1) Each concentration of the 100-fold concentrated substance was diluted with test medium for 1:50 (for ex.: adding of 13 µl of the test substance to 637 µl test medium). • (2) 100 µl of each 1:50 diluted concentration was filled in a row of wells of a microtitre plate. One well was without the substance but with the 1:50 diluted solvent serving as growth control.
(§3) A further 1:2 dilution of the antifungal was made by the inoculation of each well with 100 µl of the test organism, which was suspended in the test medium. The remaining well of the row was used for sterility control of the medium. The inoculum was strictly prepared according the NCCLS^25 guidelines, resulting in […] for Candida-species and Cryptococcus neoformans. For hyphomycetes CFU's were tenfold higher (see NCCLS). ^26 The growth of the hyphomycetes respectively the inhibition was measured by visual reading with the help of a reading mirror; scoring was done according to NCCLS :^26 score 0 corresponds to a optical clear well or an IC95 or higher, score 1 corresponds to an inhibition of 80 percent (IC80) and the score 2 of the NCCLS definition corresponds to the IC50 values in the tables. The growth of the yeasts was measured spectrophotometrically by a microplate reader (MR 5000, Dynatech laboratories) at 630 nm displaying the optical density (OD). The percent inhibition IC50, IC80 or IC95 (corresponding the scores of 2, 1 and 0) was calculated by the following formula: (100−[(ODof the well−ODof the medium)] × 100)/((ODof the growth control−ODof the medium).) [formula] Table 3. Test series for determining IC values of hassallidin A and B in different media using Candida albicans and Candida krusei. The IC values were measured after 24 h and 48 h at 30 °C.

Fusarium sambucium = assay: disk diffusion assay on malt agar plates; assay type: cell-based; settings: 10 µg in 30 µL 50% MeOH per disk
ATCC 6258 (QC) = assay: microdilution assay (NCCLS), inhibitory concentration (IC); assay type: cell-based, Candida krusei
Protocol: as §1, §2, §3

[1] = test system: Jurkat ATCC-TIB-152 (human acute T cell leukemia) celline; assay: cytotoxicity, cell viability by XTT test (1st test); assay type: cell-based
Protocol: Furthermore, the compounds according to the present invention were tested in relation to their activity against cancer cell lines. They were tested for cytotoxicity by determining the IC50-values. The IC50-value was determined by the procedure discrided in Filip P, Anke T, Sterner O, 5-(2'-oxoheptadecyl)-resorcinol and 5-(2'-oxononadecyl)-resorcinol, cytotoxic metabolites from a wood-inhabiting basidiomycete, ZNaturforsch [C]. 2002 Nov-Dec;57(11-12):1004-8. Sample preparation was carried out as follows: 1 st test The compound (hassalidin B) (20 µg) was dissolved in 4 µl DMSO and 16 µl H2O to give a concentration of 1 mg/ml. 1 µl of this solution and 0,5 µl of this solution were used to inoculate 200 µl culture medium each, thus making up a concentration of hassallidin B of 5µg/ml and 2,5 µ/ml, respectively. Thereafter 68 µl H2O were added to 17 µl of the solution of 1 mg/ml hassalidin B to give a concentration of 200 µg/ml, and again 1 µl and 0,5 µl of this solution were used to inoculate 200 µl of culture medium each thus making up a final concentration of hassallidin B of 1 µg/ml and 0,5 µg/ml, respectively. […] Cell viability of cell growing was measured by the XTT test (Boehringer, Mannheim/Roche) as discribed in the product information. […]

[2] = Table 3 series, AM3, 30 °C, 24h
[3] = Table 3 series, AM3, 30 °C, 48h
[4] = Table 3 series, RPMI, 30 °C, 24h
[5] = Table 3 series, RPMI, 30 °C, 48h
[6] = Table 3 series, SAB, 30 °C, 24h
[7] = Table 3 series, SAB, 30 °C, 48h
[8] = Table 4 series, RPMI-1640 medium, 35°C/24h
[9] = Table 4 series, RPMI-1640 medium, 35°C/48h
[10] = Table 4 series, RPMI-1640 medium, 30°C/24h
[11] = Table 4 series, RPMI-1640 medium, 30°C/48h

Row | Substance | IC50 (Candida albicans SC 5314; [2]) | IC80 (Candida albicans SC 5314; [2]) | IC95 (Candida albicans SC 5314; [2]) | IC50 (Candida albicans SC 5314; [3]) | IC80 (Candida albicans SC 5314; [3]) | IC95 (Candida albicans SC 5314; [3]) | IC50 (Candida albicans SC 5314; [4]) | IC80 (Candida albicans SC 5314; [4]) | IC95 (Candida albicans SC 5314; [4]) | IC50 (Candida albicans SC 5314; [5]) | IC80 (Candida albicans SC 5314; [5]) | IC95 (Candida albicans SC 5314; [5]) | IC50 (Candida albicans SC 5314; [6]) | IC80 (Candida albicans SC 5314; [6]) | IC95 (Candida albicans SC 5314; [6]) | IC50 (Candida albicans SC 5314; [7]) | IC80 (Candida albicans SC 5314; [7]) | IC95 (Candida albicans SC 5314; [7]) | antifungal activity in disk diffusion assay (Fusarium sambucium) | IC50 (ATCC 6258 (QC); [4]) | also measured
1 | hassallidin A | 4 µg/mL | 4 µg/mL | 4 µg/mL | 8 µg/mL | 8 µg/mL | 8 µg/mL | 16 µg/mL | 16 µg/mL | 16 µg/mL | 16 µg/mL | 16 µg/mL | 16 µg/mL | 4 µg/mL | 4 µg/mL | 4 µg/mL | 8 µg/mL | 8 µg/mL | 8 µg/mL | precise antifungal activity | 16 µg/mL | IC50 (Candida albicans SC 5314; [8]): 8 µg/mL; IC80 (Candida albicans SC 5314; [8]): 8 µg/mL; IC95 (Candida albicans SC 5314; [8]): 8 µg/mL; IC50 (Candida albicans SC 5314; [9]): 8 µg/mL; IC80 (Candida albicans SC 5314; [9]): 8 µg/mL; IC95 (Candida albicans SC 5314; [9]): 8 µg/mL; IC80 (ATCC 6258 (QC); [4]): 16 µg/mL; IC95 (ATCC 6258 (QC); [4]): 16 µg/mL; IC50 (ATCC 6258 (QC); [5]): 16 µg/mL; IC80 (ATCC 6258 (QC); [5]): 16 µg/mL; IC95 (ATCC 6258 (QC); [5]): 16 µg/mL; IC50 (ATCC 6258 (QC); [10]): 8 µg/mL; IC80 (ATCC 6258 (QC); [10]): 8 µg/mL; IC95 (ATCC 6258 (QC); [10]): 8 µg/mL; IC50 (ATCC 6258 (QC); [11]): 8 µg/mL; IC80 (ATCC 6258 (QC); [11]): 8 µg/mL; IC95 (ATCC 6258 (QC); [11]): 8 µg/mL; IC50 (ATCC 6258 (QC); [8]): 8 µg/mL; IC50 (ATCC 6258 (QC); [9]): 16 µg/mL; IC95 (ATCC 6258 (QC); [9]): 16 µg/mL
2 | hassallidin B | 4 µg/mL | 4 µg/mL | 4 µg/mL | 8 µg/mL | 8 µg/mL | 8 µg/mL | 16 µg/mL | 16 µg/mL | 16 µg/mL | 16 µg/mL | 16 µg/mL | 16 µg/mL | 8 µg/mL | 8 µg/mL | 8 µg/mL | 8 µg/mL | 8 µg/mL | 8 µg/mL | precise antifungal activity | 16 µg/mL | IC50-value [1]: 0.2 µg/mL; IC80 (ATCC 6258 (QC); [4]): 16 µg/mL; IC95 (ATCC 6258 (QC); [4]): 16 µg/mL; IC50 (ATCC 6258 (QC); [5]): 16 µg/mL; IC80 (ATCC 6258 (QC); [5]): 16 µg/mL; IC95 (ATCC 6258 (QC); [5]): 16 µg/mL
